Data as given in patent US12178846B2, “Methods of using gap junctions as therapeutic targets for the treatment of degenerative disorders of the retina” (The Research Foundation for The State University of New York, priority 2014, dated 2024).
Entries after “also recorded” stand apart in the source; their conditions may differ.

Experiments:
[1] = test system: GJs; experiment: Retrograde Neurobiotin labeling of amacrine cells coupled to RGCs; type: cell-based, mouse
Description: After experimental treatment, retinas were fixed with 4% paraformaldehyde in a 0.1 M phosphate buffer solution (PBS; pH 7.4) for 30 minutes at room temperature, cryoprotected in 30% sucrose, embedded in Tissue-Tek OCT Compound (Andwin Scientific) and frozen. Cryosections (18-20 μm thick) were cut and mounted on microscope slides. For immunostaining, sections were blocked in 3% donkey serum in 0.1M PBS supplemented with 0.5% Triton X-100, and 0.1% NaN3 for 1 h at room temperature. Primary antibodies were diluted in 0.1M PBS with 0.5% Triton X-100, 0.1% NaN3 and 1% donkey or goat serum. Tissues were then incubated with primary antibodies for 3 hours at room temperature or overnight at 4° C. The following primary antibodies were used: rabbit anti-calretinin 1:2000, rabbit anti-calbindin 1:1000, goat ant-ChAT 1:100 (all from Millipore), rabbit anti-GFAP 1:1000 (Invitrogen), rabbit anti-active caspase 3 1:200 (Abcam); mouse anti-Cx35/36 1:300, mouse anti-Cx45 1:300 (both from Millipore). After extensive washing with 0.1M PBS, tissues were incubated for 1 hour in secondary anti-goat/rabbit/mouse antibodies conjugated to Alexa-488 or Alexa-594 (1:200, Molecular Probes). Retinal sections were counterstained with the nuclear dye propidium iodide (PI, Molecular Probes). Neurobiotin was visualized with Alexa-488/594 conjugated streptavidin (Molecular Probes, 1:200). Tissues were then flat-mounted in Vectashield media (Vector Labs) and fluorescent images were taken using a fluorescent microscope or an Olympus FV1200 MPE confocal microscope.
We used retrograde labeling of RGCs with Neurobiotin to visualize populations of amacrine cells in the inner nuclear layer (INL) to which they were coupled. Globes with attached optic nerves were submersed in oxygenated Ames medium and a drop of Neurobiotin (4% in 0.1 M Tris buffer) was applied to the cut optic nerve for 40 minutes. For retrograde labeling limited to RGCs, Neurobiotin was replaced with Lucifer yellow (LY, 3%). […]

[2] = test system: ischemic retina; experiment: Transient in vivo retinal ischemia-reperfusion (raised IOP), 7 days reperfusion; set-up: species or system mouse
Description: Various methods were employed to produce cell death. (1) Single cell apoptosis: CytC was injected into individual RGCs or Müller cells for 15 minutes after which retinas were incubated for 4 hours in oxygenated Ames medium before fixation. After streptavidin histology, apoptotic cells were detected with an anti-active caspase 3 antibody or with Terminal deoxynucleotidyl transferase dUTP nick end labeling (TUNEL) staining. (2) Excitotoxicity: To assess the contribution of GJs to cell death within populations of RGCs and amacrine cells we conducted parallel experiments in which retinas were preincubated for 20 minutes in normal Ames medium or in one containing the GJ blockers meclofenamic acid (MFA; 50 μM) or 18-beta-glycyrrhetinic acid (18Beta-GA; 25 μM). Both control and drug-treated retinas were then exposed for 1 hour to NMDA (100-300 μM) to induce excitotoxicity followed by 4 hours in the control Ames solution. (3) Retinal ischemia: Transient in vivo retinal ischemia was induced by introducing into the anterior chamber a 33-gauge needle attached to a saline-filled reservoir (0.9% sodium chloride) that was raised above the animal so as to increase intraocular pressure (IOP) to a level […]. MFA (2 μl, 500 μM) was administered intravitreally either 30 minutes before or 3 and 24 hours following the ischemic insult. The opposite eye was cannulated, but maintained at normal IOP to serve as a normotensive control. After 40-50 minutes, the needle was withdrawn and ischemia was evidenced by corneal whitening. After 7 days of reperfusion, mice were sacrificed and eyes were processed to assess retinal damage and neuronal death. We also employed oxygen-glucose deprivation (OGD) to induce in vitro ischemia, in which retina-eyecups or isolated retinal whole-mounts were exposed continuously to either a control, oxygenated Ringer solution, or one that was glucose-free and deoxygenated by bubbling extensively with 95% N2/5% CO2 at 34° C. Following 60 minutes in the OGD environment, retinas were transferred to a control, oxygenated Ames medium for 4 hours before processing to evaluate cell death. Apoptotic and necrotic cell death were assessed by cell counts following: (1) staining with Live/Death Viability Assay (calcein AM/ethidium homodimer (EthD) (Invitrogen); (2) TUNEL, or, (3) labeling for activated caspase 3. For population studies, dead cells were counted manually within 500×500 μm areas (5 areas per retina) from micrographs of whole-mounts using images acquired by confocal microscope. Nuclear cell counts were made per unit length (500 μm) of frozen retinal cross-sections labeled with propidium iodide (2 μg/ml). In some experiments, cells counts were limited to retrograde labeled RGCs in the GCL or certain subpopulation of amacrine cells, identified by specific markers, such as calretinin (CR), calbindin (CB) and choline acetyltransferase (ChAT) in the INL. Fluorescence intensity measures were made of glial fibrillary acidic protein (GFAP), which is overexpressed in Müller glial cells following retinal injury. Expression of GFAP and connexins were quantified by analysis of confocal images with Metavue software (Molecular Devices). Average pixel fluorescence intensities were measured by using uniform rectangular areas (3-5 per image) extending either from the GCL to the outer limiting membrane for GFAP or through the IPL for connexins. The intensity values were then averaged for at least 5 images from 3-5 independent experiments and data were normalized to controls.

[3] = MFA 500 μM, 2 μl intravitreal 30 min before ischemic insult
[4] = MFA intravitreal 3 and 24 hours after transient ischemia, measured one week after insult, p<0.01
[5] = MFA, transient ischemia, p<0.001

How did the “number of ChAT-positive ACs labeled with Neurobiotin” value ([1]; MFA application, p>0.1) turn out when `Cc1ccc(Cl)c(Nc2ccccc2C(=O)O)c1Cl` [MFA, meclofenamic acid] was run?
The value was “did not produce a significant reduction; also recorded: little effect”.

What about the “Neurobiotin labeling of CR-positive ACs in the INL (coupling to RGCs)” value ([1]; MFA prior to retrograde labeling, p<0.01) of the same compound?
Its value is “effectively eliminated all colocalized labeling; also recorded: significantly reduced”.

And the “total number of CR-IR cells in the INL (per 500 μm section)” value ([1]; MFA-treated retinas vs control, p>0.1)?
The value was “comparable to that in control”.

And the “cell counts in the GCL” value [2, 3]?
The value was “preserved”.

And the “retinal thickness / retinal morphology” value [2, 3]?
Its value is “preserved; also recorded: prevented changes”.

What about the GFAP expression [2, 4] of the same compound?
The GFAP expression was “maintenance of normal levels”.

What about the “cell counts in the GCL” value [2, 4] of the same compound?
Its value is “maintenance of normal levels; also recorded: significantly limit”.

And the retinal thickness [2, 4]?
Its retinal thickness is “maintenance of normal levels”.

What about the “number of ChAT-positive ACs in the INL” value ([2]; MFA, ischemic retinas, p>0.1) of the same compound?
Its value is “no effect”.

And the “number of CB-immunoreactive ACs in the INL” value [2, 5]?
Its value is “prevented the loss; also recorded: largely prevented a reduction”.

What about the “number of CR-immunoreactive ACs in the INL” value [2, 5] of the same compound?
Its value is “prevented the loss”.
